Assay results: patent US11944624B2, “Peptide and small molecule agonists of EphA and their uses” (CASE WESTERN RESERVE UNIVERSITY, priority 2017, dated 2024)

Experiments:
Assay type in all cases: cell-based
endogenous EphA2 = endogenous EphA2 (Homo sapiens, UniProt P29317); assay: Activation of endogenous EphA2 in PC-3 cells (pEphA/B immunoblot); set-up: host or cells: PC-3; conditions: 30 minutes
Protocol: (§1) Cells were plated in 24-well dishes at a density of 100,000 cells/well and grown for 24 hours prior to stimulation with appropriate compounds and ephrins for the given amounts of time. Compounds were prepared in DMSO at 500 times the final concentrations and 0.2% DMSO was used as vehicle control. Following treatment, cells were lysed directly in SDS Gel Loading Buffer and immunoblotted as described previously. Immunoprecipitation and immunofluorescence staining was performed as described. For immunoprecipitation, 300,000 cells/well were plated in 6-well dishes and lysed in modified RIPA Buffer (20 mM Tris-HCl pH 7.4, 20 mM NaF, 150 mM NaCl, 10% glycerol, 0.1% SDS, 0.5% DCA, 2 mM EDTA, 1% Triton X-100) following treatment. Either 10 μg of ephrin-A1-Fc, or […] of EphA2 mouse monoclonal antibody (Clone D7, Millipore) were used, and mouse IgG was used as a negative control for EphA2 IP.
To determine whether the EphA2 agonist activity of doxazosin is cell-context specific, we evaluated the effects of doxazosin on additional cell types. We first utilized HEK 293 cells overexpressing EphA2 (HEK 293-A2) that we described previously. […] Next we tested PC-3 cells that express high levels of endogenous EphA2 receptor. […] We next evaluated the time-course of activation in both MDA-231-A2 and HEK 293-A2 cells upon treatment with a single 50 μM dose of doxazosin.

EphA2 [1] = biological target: T1, EphA2 (Homo sapiens, UniProt P29317); assay: EphA2 internalization in U373-A2 cells (immunofluorescence); set-up: expressed in transfected cells; conditions: 60 min, DZ 50 μM, ephrin-A1-Fc 1 μg/ml
Protocol: as §1
Similar to other receptor tyrosine kinases, activation of the EphA2 receptor by its ligand, ephrin-A1, results in receptor internalization and eventual degradation. […] This was first performed using the U373 glioma cell line engineered to overexpress EphA2.

EphA2 [2] = biological target: T1, EphA2; assay: EphA2 activation in A172-A2 glioma cells; set-up: expressed in transfected cells
Protocol: as §1
Activation of EphA2 receptor by ephrin-A1 ligand inhibits both ERK1/2 and Akt kinase activities in most normal cells and a subset of cancer cells. […] We first tested this by utilizing the A172 glioma cells engineered to overexpress EphA2 receptor (A172-A2).

[3] = test system: MDA-MB-231 breast cancer cells; assay: Haptotactic cell migration toward fibronectin, MDA-MB-231; conditions: MDA-MB-231, 4 hours
Description: One of the well-established functions of Eph receptors is the ligand-dependent repulsive guidance of cell migration. As a ligand-mimicking agonist for EphA2, doxazosin is expected to activate EphA2 on tumor cells and repulse migrating tumor cells in vitro. To test this possibility, we first investigated the effects of doxazosin on integrin-mediated haptotactic cell migration toward fibronectin in a modified Boyden chamber cell migration assay. […] The inhibitory effects were observed when doxazosin was presented either in the bottom chamber, or in both top and bottom chambers in the Transwell assay system. […] Therefore, doxazosin can recapitulate a key function attributed to its native ligands, i.e., negative regulation of cell migration.

T1 sequence (P29317 24-976): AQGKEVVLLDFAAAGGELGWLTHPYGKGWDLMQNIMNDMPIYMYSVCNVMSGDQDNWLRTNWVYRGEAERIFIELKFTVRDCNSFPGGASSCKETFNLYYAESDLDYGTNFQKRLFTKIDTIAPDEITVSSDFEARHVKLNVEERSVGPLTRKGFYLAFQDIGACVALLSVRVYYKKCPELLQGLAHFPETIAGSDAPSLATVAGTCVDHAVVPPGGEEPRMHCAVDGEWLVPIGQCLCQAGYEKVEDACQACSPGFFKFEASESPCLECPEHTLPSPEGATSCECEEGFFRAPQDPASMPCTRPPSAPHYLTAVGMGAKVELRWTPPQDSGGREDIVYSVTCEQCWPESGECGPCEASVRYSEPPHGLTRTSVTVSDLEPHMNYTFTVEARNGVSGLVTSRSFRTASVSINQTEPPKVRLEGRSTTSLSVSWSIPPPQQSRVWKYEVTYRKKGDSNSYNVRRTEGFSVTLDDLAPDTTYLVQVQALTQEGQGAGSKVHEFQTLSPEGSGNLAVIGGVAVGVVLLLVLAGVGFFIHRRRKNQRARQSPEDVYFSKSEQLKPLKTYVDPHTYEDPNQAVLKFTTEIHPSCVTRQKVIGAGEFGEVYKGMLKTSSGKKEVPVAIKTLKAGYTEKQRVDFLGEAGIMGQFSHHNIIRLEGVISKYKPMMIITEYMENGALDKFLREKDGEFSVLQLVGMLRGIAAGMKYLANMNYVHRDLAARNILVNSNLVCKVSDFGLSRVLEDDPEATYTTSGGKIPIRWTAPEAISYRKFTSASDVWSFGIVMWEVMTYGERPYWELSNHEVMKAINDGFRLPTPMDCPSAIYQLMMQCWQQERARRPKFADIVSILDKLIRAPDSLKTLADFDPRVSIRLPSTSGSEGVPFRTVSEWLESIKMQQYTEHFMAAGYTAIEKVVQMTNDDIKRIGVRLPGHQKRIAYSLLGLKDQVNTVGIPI
Sequence of endogenous EphA2 (P29317 24-976): as above

COc1cc2nc(N3CCN(C(=O)C4COc5ccccc5O4)CC3)nc(N)c2cc1OC (centres unmarked) [Doxazosin, 2-[4-(2,3-Dihydro-1,4-benzodioxine-2-carbonyl)piperazin-1-yl]-6,7-dimethoxyquinazolin-4-amine]
concentration at which EphA2 activation becomes evident (endogenous EphA2): 50 µM
EphA2 internalization (EphA2 [1]): stimulated significant EphA2 internalization
concentration at which EphA2 activation starts (EphA2 [2]; A172-A2 cells, 90 minutes): around 25 μM
EphA2 degradation (EphA2 [2]; A172 cells): degradation of EphA2 following doxazosin treatment
haptotactic cell migration toward fibronectin [3]: dose-dependent inhibition of cell migration
